Laboratory results: ChEMBL document CHEMBL4004838, “Design and synthesis of novel phenyl -1, 4-beta-carboline-hybrid molecules as potential anticancer agents” (Eur J Med Chem, 2017)

Key:
Type in all cases: functional
NCI-H322M = test: Growth inhibition of human NCI-H322M cells assessed as cell growth at 10^-5 M incubated for 48 hrs by sulforhodamine B assay relative to control; conditions: read-out: Activity
HCC 2998 = test: Growth inhibition of human HCC2998 cells assessed as cell growth at 10^-5 M incubated for 48 hrs by sulforhodamine B assay relative to control; conditions: HCC 2998, 48 h, read-out: Activity
LOX IMVI = test: Growth inhibition of human LOXIMVI cells assessed as cell growth at 10^-5 M incubated for 48 hrs by sulforhodamine B assay relative to control; conditions: read-out: Activity
CAKI-1 = test: Growth inhibition of human Caki1 cells assessed as cell growth at 10^-5 M incubated for 48 hrs by sulforhodamine B assay relative to control; conditions: CAKI-1, 48 h, read-out: Activity
MCF7 = test: Growth inhibition of human MCF7 cells assessed as cell growth at 10^-5 M incubated for 48 hrs by sulforhodamine B assay relative to control; conditions: MCF7, 48 h, read-out: Activity
CCRF-CEM = test: Growth inhibition of human CCRF-CEM cells assessed as cell growth at 10^-5 M incubated for 48 hrs by sulforhodamine B assay relative to control; conditions: read-out: Activity
DU-145 = test: Growth inhibition of human DU145 cells assessed as cell growth at 10^-5 M incubated for 48 hrs by sulforhodamine B assay relative to control; conditions: DU-145, 48 h, read-out: Activity
MDA-MB-435 = test: Growth inhibition of human MDA-MB-435 cells assessed as cell growth at 10^-5 M incubated for 48 hrs by sulforhodamine B assay relative to control; conditions: MDA-MB-435, 48 h, read-out: Activity
MDA-MB-231 = test: Growth inhibition of human MDA-MB-231 cells assessed as cell growth at 10^-5 M incubated for 48 hrs by sulforhodamine B assay relative to control; conditions: MDA-MB-231, 48 h, read-out: Activity
RPMI-8226 = test: Growth inhibition of human RPMI8226 cells assessed as cell growth at 10^-5 M incubated for 48 hrs by sulforhodamine B assay relative to control; conditions: RPMI-8226, 48 h, read-out: Activity
NCI-H460 = test: Growth inhibition of human NCI-H460 cells assessed as cell growth at 10^-5 M incubated for 48 hrs by sulforhodamine B assay relative to control; conditions: NCI-H460, 48 h, read-out: Activity
A498 = test: Growth inhibition of human A498 cells assessed as cell growth at 10^-5 M incubated for 48 hrs by sulforhodamine B assay relative to control; conditions: A498, 48 h, read-out: Activity
NCI-H522 = test: Growth inhibition of human NCI-H522 cells assessed as cell growth at 10^-5 M incubated for 48 hrs by sulforhodamine B assay relative to control; conditions: NCI-H522, 48 h, read-out: Activity
UACC-62 = test: Growth inhibition of human UACC62 cells assessed as cell growth at 10^-5 M incubated for 48 hrs by sulforhodamine B assay relative to control; conditions: UACC-62, 48 h, read-out: Activity
786-0 = test: Growth inhibition of human 786-0 cells assessed as cell growth at 10^-5 M incubated for 48 hrs by sulforhodamine B assay relative to control; conditions: 786-0, 48 h, read-out: Activity
SK-MEL-2 = test: Growth inhibition of human SK-MEL-2 cells assessed as cell growth at 10^-5 M incubated for 48 hrs by sulforhodamine B assay relative to control; conditions: SK-MEL-2, 48 h, read-out: Activity
SR = test: Growth inhibition of human SR cells assessed as cell growth at 10^-5 M incubated for 48 hrs by sulforhodamine B assay relative to control; conditions: read-out: Activity
UO-31 = test: Growth inhibition of human UO31 cells assessed as cell growth at 10^-5 M incubated for 48 hrs by sulforhodamine B assay relative to control; conditions: UO-31, 48 h, read-out: Activity
A549 = test: Growth inhibition of human A549/ATCC cells assessed as cell growth at 10^-5 M incubated for 48 hrs by sulforhodamine B assay relative to control; conditions: A549, 48 h, read-out: Activity
MDA-MB-468 = test: Growth inhibition of human MDA-MB-468 cells assessed as cell growth at 10^-5 M incubated for 48 hrs by sulforhodamine B assay relative to control; conditions: MDA-MB-468, 48 h, read-out: Activity
HOP-92 = test: Growth inhibition of human HOP92 cells assessed as cell growth at 10^-5 M incubated for 48 hrs by sulforhodamine B assay relative to control; conditions: HOP-92, 48 h, read-out: Activity
M14 = test: Growth inhibition of human M14 cells assessed as cell growth at 10^-5 M incubated for 48 hrs by sulforhodamine B assay relative to control; conditions: M14, 48 h, read-out: Activity
SK-OV-3 = test: Growth inhibition of human SKOV3 cells assessed as cell growth at 10^-5 M incubated for 48 hrs by sulforhodamine B assay relative to control; conditions: SK-OV-3, 48 h, read-out: Activity
SN12C = test: Growth inhibition of human SN12C cells assessed as cell growth at 10^-5 M incubated for 48 hrs by sulforhodamine B assay relative to control; conditions: read-out: Activity
COLO 205 = test: Growth inhibition of human COLO205 cells assessed as cell growth at 10^-5 M incubated for 48 hrs by sulforhodamine B assay relative to control; conditions: COLO 205, 48 h, read-out: Activity
OVCAR-8 = test: Growth inhibition of human OVCAR8 cells assessed as cell growth at 10^-5 M incubated for 48 hrs by sulforhodamine B assay relative to control; conditions: OVCAR-8, 48 h, read-out: Activity
SF-539 = test: Growth inhibition of human SF539 cells assessed as cell growth at 10^-5 M incubated for 48 hrs by sulforhodamine B assay relative to control; conditions: SF-539, 48 h, read-out: Activity
K562 = test: Growth inhibition of human K562 cells assessed as cell growth at 10^-5 M incubated for 48 hrs by sulforhodamine B assay relative to control; conditions: K562, 48 h, read-out: Activity
OVCAR-4 = test: Growth inhibition of human OVCAR4 cells assessed as cell growth at 10^-5 M incubated for 48 hrs by sulforhodamine B assay relative to control; conditions: OVCAR-4, 48 h, read-out: Activity
HOP-62 = test: Growth inhibition of human HOP62 cells assessed as cell growth at 10^-5 M incubated for 48 hrs by sulforhodamine B assay relative to control; conditions: HOP-62, 48 h, read-out: Activity
SF-295 = test: Growth inhibition of human SF295 cells assessed as cell growth at 10^-5 M incubated for 48 hrs by sulforhodamine B assay relative to control; conditions: SF-295, 48 h, read-out: Activity
SK-MEL-28 = test: Growth inhibition of human SK-MEL-28 cells assessed as cell growth at 10^-5 M incubated for 48 hrs by sulforhodamine B assay relative to control; conditions: SK-MEL-28, 48 h, read-out: Activity

O=Cc1ccc(C2NCCc3c2[nH]c2ccccc32)cc1 (configuration not stated)
growth at 10 µM (NCI-H322M): 97.6%
growth at 10 µM (HCC 2998): 104%
growth at 10 µM (LOX IMVI): 88.6%
growth at 10 µM (CAKI-1): 72.4%
growth at 10 µM (MCF7): 91.9%
growth at 10 µM (CCRF-CEM): 99.3%
growth at 10 µM (DU-145): 110%
growth at 10 µM (MDA-MB-435): 107%
growth at 10 µM (MDA-MB-231): 72.1%
growth at 10 µM (RPMI-8226): 101%
growth at 10 µM (NCI-H460): 100%
growth at 10 µM (A498): 86.4%
growth at 10 µM (NCI-H522): 88%
growth at 10 µM (UACC-62): 81.2%
growth at 10 µM (786-0): 104%
growth at 10 µM (SK-MEL-2): 94.8%
growth at 10 µM (SR): 114%
growth at 10 µM (UO-31): 61.9%
growth at 10 µM (A549): 94.7%
growth at 10 µM (MDA-MB-468): 88.7%
growth at 10 µM (HOP-92): 87.2%
growth at 10 µM (M14): 89.5%
growth at 10 µM (SK-OV-3): 88.2%
growth at 10 µM (SN12C): 89%
growth at 10 µM (COLO 205): 105%
growth at 10 µM (OVCAR-8): 105%
growth at 10 µM (SF-539): 103%
growth at 10 µM (K562): 102%
growth at 10 µM (OVCAR-4): 97.4%
growth at 10 µM (HOP-62): 86.3%
growth at 10 µM (SF-295): 101%
growth at 10 µM (SK-MEL-28): 109%
